Test results reported in article PMC10108886 (Cancer Research Communications, 2023).
Where two headings read alike, the source gives them in different places.

Legend:
Assay in all cases: cells
CWR22Rv1(shGFP) = settings: AR Status=H874Y and V7, growth inhibition with PARP7-inducing ligand, partial maximal effect
Text: (§1) VCaP cells encode wild-type (WT) AR and the V7 variant, and are used to model castrate resistance owing to amplification of AR. CWR22Rv1 is an informative model for therapy resistance mediated by AR splice variants that lack the ligand-binding domain. PC3-AR is a PC3 derivative engineered to express WT AR, which drives a gene expression profile that overlaps other prostate lines ([18]). PC3 cells are AR negative, resistant to therapies based on androgen deprivation, highly motile, and used to study prostate cancer metastasis. […] It is well established that androgen treatment is growth repressive in some prostate cancer lines. […] A G1 effect of androgen is, however, apparent in VCaP and PC3-AR cells (Supplementary Fig. S1A). […] FICZ is a naturally occurring tryptophan photoproduct, while 10-Chloro-7H-benzimidazo[2,1-a]benz[de]isoquinolin-7-one (10-CI-BBQ; here termed BBQ) is a synthetic molecule. FICZ and BBQ induce AHR target genes through a chaperone-mediated mechanism ([26]). […] In A, D–H, each condition reflects eight biological replicates, error bars show the SD, and ****, P < 0.0001; ***, P < 0.001; **, <0.01. […] The experiments were performed in triplicate, error bars show the SD, and ***, P < 0.001; **, <0.01, *, <0.05; ns, not significant. C, Phase contrast microscopy showing the morphology of cells treated with AHR agonist and RBN2397. […] A similar image for CWR22Rv1 cells with vehicle alone (−) is used in both Fig. 2C and 4C. […] F, RBN2397 dose–response curve of VCaP cells treated with BBQ.

CWR22Rv1(shPARP7) = settings: AR Status=H874Y and V7, growth inhibition with PARP7-inducing ligand, partial maximal effect
Text: as §1

DU145 = settings: Homo sapiens, DU-145, read-out: EC50 of RBN2397 (nM), Ligand* (Conc.)=BBQ (10 nM); AR Status=(-); growth inhibition with PARP7-inducing ligand; partial maximal effect
Text: as §1

PC3AR(shGFP) = settings: PC3/AR, AR Status=WT, growth inhibition with PARP7-inducing ligand, partial maximal effect
Text: as §1

PC3AR(shParp7) = settings: PC3/AR, AR Status=WT, growth inhibition with PARP7-inducing ligand, partial maximal effect
Text: as §1

PC3AR = settings: PC3/AR, read-out: EC50 of RBN2397 (nM), Ligand* (Conc.)=R1881 (0.2 nM); AR Status=WT; growth inhibition with PARP7-inducing ligand; partial maximal effect
Text: as §1

PC3 = settings: Homo sapiens, AR Status=(-), growth inhibition with PARP7-inducing ligand, partial maximal effect
Text: as §1

VCaP = settings: Homo sapiens, VCaP, AR Status=WT and V7, growth inhibition with PARP7-inducing ligand, partial maximal effect
Text: as §1

[1] = CWR22Rv1, read-out: EC50 of RBN2397 (nM), Ligand* (Conc.)=BBQ (10 nM)
[2] = CWR22Rv1, read-out: EC50 of RBN2397 (nM), Ligand* (Conc.)=R1881 (2 nM)
[3] = read-out: EC50 of RBN2397 (nM), Ligand* (Conc.)=BBQ (10 nM)
[4] = read-out: EC50 of RBN2397 (nM), Ligand* (Conc.)=R1881 (0.2 nM)

EC50 (DU145): 5.2 nM
EC50 (PC3AR(shGFP); [3]): 8.4 nM
EC50 (PC3AR(shGFP); [4]): 3.4 nM
EC50 (PC3AR(shParp7); [3]): 5.6 nM
EC50 (PC3AR(shParp7); [4]): 5.7 nM
EC50 (PC3AR): 2.4 nM
EC50 (PC3; PC-3, read-out: EC50 of RBN2397 (nM), Ligand* (Conc.)=BBQ (10 nM)): 10 nM
EC50 (PC3; PC-3, read-out: EC50 of RBN2397 (nM), Ligand* (Conc.)=R1881 (0.2 nM)): 9.4 nM
EC50 (VCaP; read-out: EC50 of RBN2397 (nM), Ligand* (Conc.)=BBQ (100 nM)): 34.2 nM
EC50 (VCaP; read-out: EC50 of RBN2397 (nM), Ligand* (Conc.)=R1881 (2 nM)): 3.4 nM
Compound: C[C@@H](COCCC(=O)N1CCN(c2ncc(C(F)(F)F)cn2)CC1)Nc1cn[nH]c(=O)c1C(F)(F)F [RBN2397]
EC50 (CWR22Rv1(shGFP); [1]): 0.6 nM
EC50 (CWR22Rv1(shGFP); [2]): 4.8 nM
EC50 (CWR22Rv1(shPARP7); [1]): 1.7 nM
EC50 (CWR22Rv1(shPARP7); [2]): 39.6 nM
